Reference: PMC4684500, “Diversity, Antimicrobial Action and Structure-Activity Relationship of Buffalo Cathelicidins” (PLoS ONE, 2015)
Where no end group is shown, it is not given here.

How the values were obtained:
[1] = system: S. aureus; assay: LIVE/DEAD BacLight membrane permeability assay; format: cell-based, Staphylococcus aureus; details: peptide 200μM, log phase culture, SYTO9/PI
Method: (§1) The damage to bacterial membrane following addition of peptide was assessed by BacLight kit (Life Technologies, CA, USA). Aliquots of S. aureus, S. enterica and P. aeruginosa cultures from exponential (shaking incubation for 2, 3, and 4 h, respectively) and stationary phases (overnight incubation) were harvested by centrifugation (5000 g for 10 min) and diluted in PBS. Peptides (200μM) were added to bacterial suspension and 50 μl aliquots were removed immediately or after 1 h incubation. Equi-volume mixtures of SYTO9/PI (3 μl/ml bacterial suspension) were added to these aliquots and fluorescent micrographs of stained bacteria were taken at 1000×magnification in a microscope (Olympus BX51 fitted with DP71 camera) with a fluorescence illuminator system.

[2] = system: Escherichia coli MTCC-0723; format: cell-based; details: MTCC-0723, 24 h
Method: (§2) The buCATHL4 peptides were synthesized by G L Biochem (Shanghai, China). Purity and molecular mass of the peptides were provided by the vendors using HPLC and mass spectrometry, respectively. The purity of all peptides were >98%. Minimum inhibitory concentrations (MIC) of buCATHL4s against the pathogenic microorganisms were tested by broth micro-dilution technique. Briefly, bacteria were grown in Mueller Hinton broth (Sigma-Aldrich, MO, USA) at 37°C. The OD of early-log phase cultures were adjusted to 0.08–0.1 and further diluted (1:200) to keep inoculums concentration nearly 10^6 colony forming units (CFU)/ml. Diluted peptides (10 μl) were mixed with equi-volume solution A (0.02% acetic acid containing 0.4% BSA) and were serially diluted in the solution B (0.01% acetic acid containing 0.2% BSA). Bacterial inoculums (90 μl) were mixed with serially diluted peptides and incubated at 37°C for 24 h without shaking. […] All peptides were tested in triplicate. For time kill kinetics experiments, peptides (1×, 2× and 4× MIC) were added to bacterial suspension of Staphylococcus aureus, Salmonella enterica and Pseudomonas aeruginosa, as described in the MIC determination method. Aliquots of representative wells were diluted and plated on Muller Hinton agar plates at 0, 1, 4, 12 and 24 h intervals. Water with 0.01% acetic acid and ampicillin (100 mg/ml) were taken as […] controls, respectively. The results were represented as log CFU/ml.

[3] = system: Pseudomonas aeruginosa ATCC-27853; format: cell-based; details: ATCC-27853, 24 h
Method: as §2

[4] = system: Listeria monocytogenes ATCC-19111; format: cell-based; details: ATCC-19111, 24 h
Method: as §2

[5] = system: Pseudomonas aeruginosa NCDC-0105; format: cell-based; details: NCDC-0105, 24 h
Method: as §2

[6] = system: Salmonella typhimurium ATCC-14028; format: cell-based; details: ATCC-14028, 24 h
Method: as §2

[7] = system: Bacillus cereus NCDC-0240; format: cell-based; details: NCDC-0240, 24 h
Method: as §2

[8] = system: Acinetobacter johnsonii NCDC-0072; format: cell-based; details: 24 h
Method: as §2

[9] = system: S. aureus; assay: Scanning and transmission electron microscopy; format: cell-based, Staphylococcus aureus; details: lower concentrations (≤2× MIC)
Method: (§3) Early log phase cultures of S. aureus and S. enterica were subjected to different concentration of peptides and incubated at 37°C. The bacterial pellets after centrifugation (5000 g for 10 min) were washed with 0.1M cacodylate buffer (pH 7.2) and were fixed in 2.5% gluteraldehyde at 4°C for 2 h. For scanning electron microscopy, bacteria were dehydrated using gradient series of ethanol wash (30, 50, 70, 90 and absolute). The samples were air-dried overnight, gold coated (Eiko IB-3 ion coater), and viewed in a Zeiss EVO 18 Special Edition SEM. For transmission electron microscopy, fixed samples were adhered to hexagonal PELCO® Grids (Ted Pella, Inc. USA), washed once with Mili-Q water and stained with uranyl acetate (2%) buffer. Samples were viewed in a JEM 1011 (Jeol, Japan) microscope.

[10] = system: S. typhimurium; assay: Scanning and transmission electron microscopy; format: cell-based, Salmonella typhimurium
Method: as §3

[11] = system: P. aeruginosa biofilm; assay: Biofilm assay (crystal violet); format: cell-based, Pseudomonas aeruginosa; details: peptide at 1× and 2× MIC, 24 h 37°C, crystal violet A570
Method: (§4) The efficacy of peptides against biofilms of S. aureus and P. aeruginosa was determined using previously described method. Overnight grown bacterial cultures were diluted (1:100) and 200 μl suspensions were mixed with each peptide (1× and 2× MIC) in a 96 well plate and incubated for 24 h at 37°C. Biofilms were fixed with paraformadehyde solution, cultures were decanted and 0.1% crystal violet solution was added to stain the film. The plate was rinsed thrice with water and air-dried. The stain was dissolved by 100 μl of acetic acid (30%) and absorbance was measured at 570 nm. The experiment was performed in triplicate, 30% acetic acid was taken as a blank.

[12] = system: Stahylococcus aureus ATCC-29213; format: cell-based, Staphylococcus aureus; details: ATCC-29213, 24 h
Method: as §2

[13] = system: Stahylococcus aureus NCDC-0111; format: cell-based, Staphylococcus aureus; details: 24 h
Method: as §2

[14] = system: S. typhimurium; assay: LIVE/DEAD BacLight membrane permeability assay; format: cell-based, Salmonella typhimurium; details: peptide 200μM, SYTO9/PI
Method: as §1

[15] = system: PBMCs; assay: In vitro cytokine response, qRT-PCR; format: cell-based, buffalo; details: peptide 500 nM, 1 h, qRT-PCR vs PBS control, p<0.05
Method: For measurement of in vitro cytokine response, PBMCs were isolated from blood and maintained in serum-free RPMI-1640 (Sigma Aldrich, MO, USA) medium. Cells were exposed to peptides (500 nM), muramyl-di-peptide (Invivogen, San Diego, CA) [MDP (10 μg/ml) as positive control] and PBS (negative control). Cells were incubated for 1 h and relative mRNA abundance of cytokines was quantified by qRT-PCR using RPS-18 gene as housekeeping control. Total RNA, extracted by TRIzol (Ambion, CA, USA) method was used for cDNA preparation (Superscript III cDNA synthesis kit; Invitrogen, CA, USA).qRT-PCR reactions were performed in a Light Cycler® 480 II machine (Roche Diagnostics, USA). Each reaction consisted of 2 μl cDNA template, 5 μl of 2× SYBR® Green PCR Master Mix (Thermo Scientific, PA, USA), 0.25 μl each of forward and reverse primers (10 pmol) and nuclease free water for a final volume of 10 μl. Each sample was run in duplicate.

[16] = system: S. aureus biofilm; assay: Biofilm assay (crystal violet); format: cell-based, Staphylococcus aureus; details: peptide at 1× and 2× MIC, 24 h 37°C, crystal violet A570
Method: as §4

[17] = system: S. aureus; assay: Time kill kinetics; format: cell-based, Staphylococcus aureus
Method: as §2

[18] = system: S. aureus, S. typhimurium and P. aeruginosa; assay: Time kill kinetics, three pathogens; format: cell-based; details: peptide at 4× MIC
Method: as §2

Q: With RIRFPWPWRWPWWRRVRG [buCATHL4C] as the sequence, how does the “Clumping (agglutination) of S. aureus after peptide addition” value [1] read?
A: immediate clumping

Q: And the MIC [2]?
A: 12.5 µM

Q: And the MIC [3]?
A: 0.2 µM

Q: What about the MIC [4] of the same sequence?
A: 1.5 µM

Q: What about the MIC [5] of the same sequence?
A: 6 µM

Q: And the MIC [6]?
A: 3 µM

Q: What about the MIC [7] of the same sequence?
A: 0.8 µM

Q: And the MIC [8]?
A: 6 µM

Q: What about the “Morphological change of S. aureus cells (SEM/TEM)” value [9] of the same sequence?
A: swelling and blebing

Q: And the “Formation of pore like structures over the membrane (SEM/TEM)” value ([10]; Fig 5H and 5L, S. typhimurium, with extensive wrinkling of membrane)?
A: Formation of pore like structures

Q: And the “Formation of negative curvature on membrane (SEM/TEM)” value ([10]; more evident with S. typhimurium)?
A: Formation of negative curvature

Q: What about the “Reduction in biofilm growth of P. aeruginosa” value [11] of the same sequence?
A: substantial

Q: And the MIC [12]?
A: 0.2 µM

Q: And the MIC [13]?
A: 0.4 µM

Q: What about the “Clumping (agglutination) of S. typhimurium after peptide addition” value ([14]; log phase culture) of the same sequence?
A: immediate clumping

Q: And the “Membrane permeability of latent (stationary phase) S. typhimurium” value ([14]; stationary phase culture, proportion of cells affected comparatively less)?
A: affected membrane permeability

Q: And the “TNF-α mRNA response” value [15]?
A: significantly higher

Q: What about the “Reduction in biofilm growth of S. aureus” value [16] of the same sequence?
A: substantial

Q: What about the “Growth inhibition of S. aureus in time kill kinetics” value ([17]; peptide at 2× MIC, plating at 0, 1, 4, 12, 24 h) of the same sequence?
A: complete growth inhibition

Q: What about the “Time to complete elimination of S. aureus” value ([17]; peptide at 4× MIC, time kill kinetics) of the same sequence?
A: 4 h

Q: And the “Killing rate compared with indolicidin and ampicillin” value [18]?
A: comparatively better killing rate
